Results: article PMC11425824 (ACS Omega, 2024)
One block for each molecule: values may come before it.

How the values were obtained:
CDK1 = CDK1 (Homo sapiens, UniProt P06493); assay: In vitro CDK1 kinase assay; assay type: biochemical
[1] = cited from earlier work
primary hepatocytes = details: cited from earlier work
[2] = cited from earlier work; remark: listed apart in the source

CDK1, sequence (P20248 whole entry): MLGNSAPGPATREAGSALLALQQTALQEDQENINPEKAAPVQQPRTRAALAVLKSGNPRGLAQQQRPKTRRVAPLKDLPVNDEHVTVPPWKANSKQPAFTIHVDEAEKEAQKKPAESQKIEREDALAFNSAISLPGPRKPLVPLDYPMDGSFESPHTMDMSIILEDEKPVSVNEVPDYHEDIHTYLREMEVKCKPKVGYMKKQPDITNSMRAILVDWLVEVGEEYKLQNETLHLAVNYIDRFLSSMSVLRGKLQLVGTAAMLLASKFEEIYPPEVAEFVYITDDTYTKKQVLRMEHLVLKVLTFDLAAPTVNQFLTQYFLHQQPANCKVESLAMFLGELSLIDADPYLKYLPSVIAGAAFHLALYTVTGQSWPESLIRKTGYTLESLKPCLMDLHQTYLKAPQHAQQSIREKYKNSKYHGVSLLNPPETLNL
CDK1, sequence (P06493 whole entry): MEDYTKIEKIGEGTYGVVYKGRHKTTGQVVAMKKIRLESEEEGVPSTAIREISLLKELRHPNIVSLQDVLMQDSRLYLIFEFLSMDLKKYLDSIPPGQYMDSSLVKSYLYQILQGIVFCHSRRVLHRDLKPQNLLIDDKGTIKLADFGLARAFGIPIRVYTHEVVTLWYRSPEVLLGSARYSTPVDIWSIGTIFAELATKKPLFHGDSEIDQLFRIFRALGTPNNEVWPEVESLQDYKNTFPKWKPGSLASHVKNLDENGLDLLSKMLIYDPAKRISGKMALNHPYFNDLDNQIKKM

SMILES: CC(C)OC(=O)[C@H](C)N[P@](=O)(CO[C@H](C)Cn1cnc2c(N)ncnc21)Oc1ccccc1 [DB_1, tenofovir alafenamide]
IC50 (CDK1): 2.82 µM | Cytotoxicity profile [1]: minimal cytotoxic effects | Mitochondrial toxicity [1]: low potential for mitochondrial toxicity

IC50 (CDK1): 4.37 µM
SMILES: CCO[C@@H](Cc1ccc(OCCc2ccc(OS(C)(=O)=O)cc2)cc1)C(=O)O [DB_6, tesaglitazar]
Toxicity to primary hepatocytes (primary hepatocytes): no significant toxicity

IC50 (CDK1): 5.94 µM
SMILES: Cc1cc2cc(Oc3ccnc(Nc4cccc(CS(=O)(=O)NCCN(C)C)c4)n3)ccc2[nH]1 [DB_7, Surufatinib]

CDK1 activity (CDK1; 1 μM): around 20% | CDK1 inhibition (CDK1; higher concentrations (10 and 100 μM)): 100%
SMILES: O=C1NC(=NCc2cccs2)S/C1=C\c1ccc2ncccc2c1 [RO-3306]
Clearance from the blood plasma [2]: rapid clearance
